Tests used:
tumor cell = assay: Cytotoxicity assay (MTS); assay type: cell-based; details: 72 h; incubation for three days; read-out: IC50, tumor cell growth inhibition (MTS)
Method in brief: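 Tumour cells seeded overnight, then exposed to varying compound concentrations for three days. Viability read by MTS/PMS conversion to formazan (2 h, 37 °C, absorbance 490 nm). Results given as blank-corrected T/C (%) against vehicle controls.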

[1] = tested on: human colon cancer cell line (Colo205) xenograft; assay: In vivo tumor growth inhibition assay, nude mice s.c. implanted tumor model
Protocol: The human colon cancer cell line (Colo205) obtained from the American Type Culture Collection (Rockville, Md.) was used for the xenograft model. The cell line was maintained in growth medium supplemented with L-glutamine, ribonucleosides, deoxyribonucleosides, 10% FCS, and the following antimicrobial agents: 100 IU/ml penicillin, […] streptomycin, and […] amphotericin B. Cultures were established in 75-cm^2 flasks (Costar, Cambridge, Mass.), maintained at 37° C. in a humidified atmosphere with 5% CO2 in air, and subcultured every 4˜7 days with 0.25% trypsin in HBSS (Invitrogen Life Technologies, Carlsbad, Calif.). For in vivo tumor growth, cells (1×10^7) suspended in 100 μl of PBS were inoculated in the flanks of 5-week-old female athymic BALB/cAnNCij-nu/nu mice (Charles River, Kanagawa, Japan). Seven days after inoculation (day 7), mice with tumors measuring 6-7 mm in diameter were randomly separated into 3 groups with five mice in each group. Compound 36 was dissolved in a vehicle (10% 40 mM sodium citrate, 5% Tween-80, 5% ethanol in saline) and intraperitoneally administered respectively to the groups of mice at the selected dose levels with the selected dosing regimen. A vehicle was administered to the third group of mice. Tumor size was measured twice weekly until day 30. Tumor volume (TV) was calculated as follows: volume=[length (mm)×width (mm)^2]×0.52. The tumor growth for each group was expressed by the median values of the ratio between the tumor volume measured at a specific day to the initial tumor volume measured at the day of first dosing.

Human Colo205 cells = assay: Cell cycle arrest assay (flowcytometry, propidium iodide); assay type: cell-based; details: DNA content by flowcytometry
Protocol: The efficacy of a test compound to arrest cells as a KSP inhibitor was determined by flowcytometry analysis. Human Colo205 cells were grown in 6-well plates and treated the next day with the test compound for various time lengths. They were then scraped from plates using a rubber policeman, washed with PBS, and centrifuged at 1,000 rpm for 5 minutes. 1 ML of a buffer containing 10 μM of propidium iodide and 50 ug/ml of RNase A was used to re-suspend the cells. The cells were subsequently incubated in this buffer for 10 minutes at room temperature in the dark, passed through a filter to remove cell clumps, and observed under a Coulter Epics XL-MCL Training Modules flowcytometer.

Structure (SMILES) | IC50 (tumor cell) [µM] | shift in cell cycle population (Human Colo205 cells) | also measured
Cc1ccc(C(=O)N(CCN)C(c2nc3c(oc4ccc(Cl)cc43)c(=O)n2Cc2ccccc2)C(C)C)cc1 (stereo not drawn) [Compound 36] | < 30 |  | tumor growth inhibition (in words) ([1]; 40 mg/Kg and 30 mg/Kg, intraperitoneal, q2dx5, Colo205 xenograft): significant tumor growth inhibition; tumor growth inhibition at day 10 ([1]; 40 mg/Kg and 30 mg/Kg, intraperitoneal, q2dx5, day 10): more than 83%; tumor growth inhibition at day 13 ([1]; 40 mg/Kg and 30 mg/Kg, intraperitoneal, q2dx5, day 13): more than 90%; tumor growth inhibition at day 16 ([1]; 40 mg/Kg and 30 mg/Kg, intraperitoneal, q2dx5, day 16): more than 92%; tumor inhibition, higher dose versus lower dose ([1]; 40 mg/Kg compared with 30 mg/Kg, q2dx5): stronger tumor inhibition
Cc1ccc(C(=O)N(CCN)[C@@H](c2nc3c(oc4ccc(F)cc43)c(=O)n2Cc2ccc(Br)o2)C(C)C)cc1 [Compound 177] | < 30 | shift in the population of cells from a G0/G1 stage (2N DNA content) to a G2/M stage (4N DNA content) | 
Cc1ccc(C(=O)N(CCN)C(c2nc3c(oc4ccc(F)cc43)c(=O)n2Cc2ccc(C(F)(F)F)o2)C(C)C)cc1 (stereo not drawn) [Compound 86] | < 30 | shift in the population of cells from a G0/G1 stage (2N DNA content) to a G2/M stage (4N DNA content) | 
Cc1ccc(C(=O)N(CCN)C(c2nc3c(oc4ccc(F)cc43)c(=O)n2Cc2cc(C)cs2)C(C)C)cc1 (stereo not drawn) [Compound 84] | < 30 | shift in the population of cells from a G0/G1 stage (2N DNA content) to a G2/M stage (4N DNA content) | tumor growth inhibition at day 20 ([1]; 60 mg/Kg, q3dx3, day 20): more than 90%
Cc1ccc(C(=O)N(CCN)C(c2nc3c(oc4ccc(F)cc43)c(=O)n2Cc2ccccc2)C(C)C)cc1 (stereo not drawn) [Compound 62] |  | shift in the population of cells from a G0/G1 stage (2N DNA content) to a G2/M stage (4N DNA content) | 
Cc1ccc(C(=O)N(CCN)C(c2nc3c(oc4ccc(F)cc43)c(=O)n2Cc2ccc(Br)s2)C(C)C)cc1 (stereo not drawn) [Compound 66] | < 30 | shift in the population of cells from a G0/G1 stage (2N DNA content) to a G2/M stage (4N DNA content) | 
Cc1csc(Cn2c(C(C(C)C)N(CCN)C(=O)c3ccc(C)c(F)c3)nc3c(oc4ccc(F)cc43)c2=O)c1 (stereo not drawn) [Compound 168] | < 30 | shift in the population of cells from a G0/G1 stage (2N DNA content) to a G2/M stage (4N DNA content) | 
Cc1csc(Cn2c([C@@H](C(C)C)N(CCN)C(=O)c3ccc(Cl)cc3)nc3c(oc4ccc(F)cc43)c2=O)c1 [Compound 181] | < 30 |  | 
Cc1ccc(Cn2c(C(C(C)C)N(CCN)C(=O)c3ccc(C)cc3)nc3c(oc4ccc(F)cc43)c2=O)cc1 (stereo not drawn) [Compound 123] | < 30 |  | 
Cc1ccc(C(=O)N(CCN)C(c2nc3c(oc4ccc(F)cc43)c(=O)n2Cc2cc(C#N)cs2)C(C)C)cc1 (stereo not drawn) [Compound 112] | < 30 |  | 
Cc1ccc(C(=O)N(CCCN)C(c2nc3c(sc4ccc(F)cc43)c(=O)n2Cc2ccccc2)C(C)C)cc1 (stereo not drawn) [Compound 136] | < 30 |  | 
Cc1ccc(C(=O)N(CCN)C(c2nc3c(oc4ccc(F)cc43)c(=O)n2Cc2ccc(Br)o2)C(C)C)cc1 (stereo not drawn) [Compound 81] | < 30 | shift in the population of cells from a G0/G1 stage (2N DNA content) to a G2/M stage (4N DNA content) | 
CCNC(=O)c1ccc(Cn2c(C(C(C)C)N(CCN)C(=O)c3ccc(C)cc3)nc3c(oc4ccc(F)cc43)c2=O)s1 (stereo not drawn) [Compound 116] | < 30 |  | 
Cc1ccc(C(=O)N(CCN)C(c2nc3c(oc4ccc(Cl)cc43)c(=O)n2Cc2cccs2)C(C)C)cc1 (stereo not drawn) [Compound 44] | < 30 |  | 
Cc1ccc(C(=O)N(CCCN)C(c2nc3c(oc4ccccc43)c(=O)n2Cc2cccs2)C(C)C)cc1 (stereo not drawn) [Compound 15] | < 30 |  | 
Cc1ccc(C(=O)N(CCN)C(c2nc3c(oc4ccc(F)cc43)c(=O)n2Cc2ccc(C#N)s2)C(C)C)cc1 (stereo not drawn) [Compound 83] | < 30 | shift in the population of cells from a G0/G1 stage (2N DNA content) to a G2/M stage (4N DNA content) | 
Cc1ccc(C(=O)N(CCCN)C(c2nc3n(c(=O)c2Cc2ccccc2)Cc2ccccc2-3)C(C)C)cc1F (stereo not drawn) [Compound 152] | < 30 |  | 
Cc1ccc(C(=O)N(CCN)C(c2nc3c(oc4ccc(F)cc43)c(=O)n2Cc2ccc(CO)cc2)C(C)C)cc1 (stereo not drawn) [Compound 130] | < 30 |  | 
Cc1ccc(CN(CCCN)C(c2nc3cc4ccccc4cc3c(=O)n2Cc2ccccc2)C(C)C)cc1 (stereo not drawn) [Compound 7] | < 30 |  | 
Cc1ccc(C(=O)N(CCCN)C(c2nc3c(oc4ccc(Cl)cc43)c(=O)n2Cc2cc(C)cs2)C(C)C)cc1 (stereo not drawn) [Compound 95] | < 30 |  | 
Cc1ccc(C(=O)N(CCN)C(c2nc3c(oc4ccc(F)cc43)c(=O)n2Cc2ccc(C(N)=O)s2)C(C)C)cc1 (stereo not drawn) [Compound 98] | < 30 |  | 
Cc1ccc(C(=O)N(CCN)C(c2nc3c(oc4cc(F)ccc43)c(=O)n2Cc2cc(C)cs2)C(C)C)cc1 (stereo not drawn) [Compound 109] | < 30 |  | 
Cc1ccc(C(=O)N(CCCN)C(c2nc3c(oc4ccc(Cl)cc43)c(=O)n2Cc2ccc(Br)s2)C(C)C)cc1 (stereo not drawn) [Compound 41] | < 30 |  | 
Cc1ccc(C(=O)N(CCN)C(c2nc3c(oc4ccc(Cl)cc43)c(=O)n2Cc2ccc(Br)o2)C(C)C)cc1 (stereo not drawn) [Compound 103] | < 30 |  | 
Cc1ccc(C(=O)N(CCN)[C@@H](c2nc3c(oc4ccc(F)cc43)c(=O)n2Cc2ccc(C(F)(F)F)o2)C(C)C)cc1 [Compound 213] | < 30 |  | 
CC(C)C(c1nc2c(oc3ccccc32)c(=O)n1Cc1ccccc1F)N(CCCN)C(=O)c1ccc(Br)cc1 (stereo not drawn) [Compound 28] | < 30 |  | 

From patent US20090214529A9, “KINESIN INHIBITORS” (TaiGen Biotechnology Co., Ltd., priority 2007, published 2009)
